No end group written: not given here.
Columns and labels:
[1] = target: T1, human GIP receptor (Homo sapiens, UniProt P48546); experiment: cAMP accumulation assay (agonism, antagonism, Schild analysis), COS-7 cells transfected with human GIP receptor (Example 7); format: cell-based; settings: for Slope of Schild plot: GIP(1-42) dose-response curves with fixed antagonist concentrations
T1 construct: host or cells: COS-7 cells, transient transfection (calcium phosphate precipitation), pCMV-Script vector
T1 sequence (P48546 22-466): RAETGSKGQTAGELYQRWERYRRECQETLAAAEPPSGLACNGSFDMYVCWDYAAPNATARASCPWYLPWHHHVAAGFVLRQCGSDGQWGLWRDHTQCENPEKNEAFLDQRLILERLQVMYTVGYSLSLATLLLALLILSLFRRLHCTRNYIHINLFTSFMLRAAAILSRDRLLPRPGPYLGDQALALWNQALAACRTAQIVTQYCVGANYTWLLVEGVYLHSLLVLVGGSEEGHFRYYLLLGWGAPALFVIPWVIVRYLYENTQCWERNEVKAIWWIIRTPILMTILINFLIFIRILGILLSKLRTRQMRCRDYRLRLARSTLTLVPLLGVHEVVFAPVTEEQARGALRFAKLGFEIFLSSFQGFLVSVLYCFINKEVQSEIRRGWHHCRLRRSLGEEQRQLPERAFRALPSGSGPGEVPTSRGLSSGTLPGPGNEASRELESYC
Description: COS-7 cells were grown in 10% CO2 and at 37° C. in Dulbecco's modified Eagle's medium 1885 supplemented with 10% fetal bovine serum, 2 mM glutamine, 180 units/ml penicillin, and 45 µg/ml streptomycin. Transfection of COS-7 cells was performed using the calcium phosphate precipitation method with chloroquine addition as previously described (Kissow et al., 2012).
Two days after transfection the cells were washed once with HEPES buffered saline (HBS) and incubated with HBS and 0.5 mM 3-isobutyl-1-methylxanthine (IBMX) for 30 minutes at 37° C. […] After ligand incubation, the HitHunter™ cAMP XS assay (an enzyme fragment complementation-based assay, DiscoveRx, Birmingham, United Kingdom) was carried out according to the manufacturer's instructions. All experiments were made in duplicates, and repeated at least three times. Luminescence was measured by Perkin Elmer™ EnVision 2104 Multilabled reader (Skovlunde, Danmark). In brief, the cells were lysed in the wells, the enzyme fragment-cAMP-antibody, an enzyme fragment and the enzyme substrates were added followed by 1 hour incubation at room temperature on shaker tray. The other enzyme fragment was added to the wells and incubated for 4 hours on shaker tray followed by measurements of luminescence. The ligand-induced cAMP competed with the binding of antibody to the first enzyme fragment and left the two fragments to fuse. The enzyme complex hydrolyzed the substrates and yielded luminescence. The number “n” refers to individual experiments with separate transfections although from same cell line.
IC50, EC50, and Kd/Ki values were determined by nonlinear regression. These, as well as maximal binding capacity (Bmax) values and Schild plot analysis were carried out with the GraphPad Prism 6.0 software (GraphPad, San Diego, Calif., USA) and Microsoft Excel™. Statistical analyses (unpaired t-tests) of two parameters were also performed with GraphPad Prism 6.0. The calculations of Bmax and Ki values were based on the formula for one class of binding sites in homologous competition binding studies and the Cheng Prussoffs formula, respectively (DeBlasi et al., 1989). Kd is the dissociation constant determined by homologous receptor binding. […] Schild plots were performed with log (DR-1) (ordinate) and log(antagonist concentration) (abscissa) to estimate the slopes and Ki values (Lazareno and Birdsall, 1993).

[2] = target: T1, human GIP receptor; experiment: Competitive binding assay with 125I-labelled GIP radioligands, COS-7 cells transfected with human GIP receptor (Example 7); settings: for fold change GIP(1-30)NH2 / Competitive binding fold (fold change of GIP(1-30)NH2 affinity): relative to GIP(1-30)NH2; for Competitive binding fold (fold change of GIP(1-30)NH2 affinity): radioligand 125I-GIP(1-42)
Description: Transfection of COS-7 cells was performed using the calcium phosphate precipitation method with chloroquine addition as previously described (Kissow et al., 2012). […] Nonspecific binding was determined as the binding of radioligand to untransfected cells. All determinations were made in duplicates, and all experiments repeated at least three times. The samples were analyzed for radioactivity using a Wallac Wizard 1470 Gamma Counter (GMI Inc., Minnesota, USA). The number “n” refers to individual experiments with separate transfections although from same cell line. IC50, EC50, and Kd/Ki values were determined by nonlinear regression. […] Statistical analyses (unpaired t-tests) of two parameters were also performed with GraphPad Prism 6.0. The calculations of Bmax and Ki values were based on the formula for one class of binding sites in homologous competition binding studies and the Cheng Prussoffs formula, respectively (DeBlasi et al., 1989). Kd is the dissociation constant determined by homologous receptor binding. […] Schild plots were performed with log (DR-1) (ordinate) and log(antagonist concentration) (abscissa) to estimate the slopes and Ki values (Lazareno and Birdsall, 1993).

[3] = inhibition of GIP(1-42) at 50-80% of max receptor activation

## CC[C@H](C)[C@H](NC(=O)[C@H](CO)NC(=O)[C@H](Cc1ccc(O)cc1)NC(=O)[C@H](CC(=O)O)NC(=O)[C@H](CO)NC(=O)[C@@H](NC(=O)[C@H](Cc1ccccc1)NC(=O)[C@@H](NC(=O)CNC(=O)[C@H](CCC(=O)O)NC(=O)[C@H](C)NC(=O)[C@@H](N)Cc1ccc(O)cc1)[C@@H](C)O)[C@@H](C)CC)C(=O)N[C@@H](C)C(=O)N[C@@H](CCSC)C(=O)N[C@@H](CC(=O)O)C(=O)N[C@@H](CCCCN)C(=O)N[C@H](C(=O)N[C@@H](Cc1c[nH]cn1)C(=O)N[C@@H](CCC(N)=O)C(=O)N[C@@H](CCC(N)=O)C(=O)N[C@@H](CC(=O)O)C(=O)N[C@@H](Cc1ccccc1)C(=O)N[C@H](C(=O)N[C@@H](CC(N)=O)C(=O)N[C@@H](Cc1c[nH]c2ccccc12)C(=O)N[C@@H](CC(C)C)C(=O)N[C@@H](CC(C)C)C(=O)N[C@@H](C)C(=O)N[C@@H](CCC(N)=O)C(=O)N[C@@H](CCCCN)C(N)=O)C(C)C)[C@@H](C)CC [GIP(1-30)NH2, reference compound]
[1]; agonist mode
  Intrinsic agonistic activity in cAMP accumulation: full agonist

## CC[C@H](C)[C@H](NC(=O)[C@H](CO)NC(=O)[C@H](Cc1ccc(O)cc1)NC(=O)[C@H](CC(=O)O)NC(=O)[C@H](CO)NC(=O)[C@@H](NC(=O)[C@H](Cc1ccccc1)NC(=O)[C@@H](NC(=O)CNC(=O)[C@H](CCC(=O)O)NC(=O)[C@H](C)N)[C@@H](C)O)[C@@H](C)CC)C(=O)N[C@@H](C)C(=O)N[C@@H](CCSC)C(=O)N[C@@H](CC(=O)O)C(=O)N[C@@H](CCCCN)C(=O)N[C@H](C(=O)N[C@@H](Cc1c[nH]cn1)C(=O)N[C@@H](CCC(N)=O)C(=O)N[C@@H](CCC(N)=O)C(=O)N[C@@H](CC(=O)O)C(=O)N[C@@H](Cc1ccccc1)C(=O)N[C@H](C(=O)N[C@@H](CC(N)=O)C(=O)N[C@@H](Cc1c[nH]c2ccccc12)C(=O)N[C@@H](CC(C)C)C(=O)N[C@@H](CC(C)C)C(=O)N[C@@H](C)C(=O)N[C@@H](CCC(N)=O)C(=O)N[C@@H](CCCCN)C(N)=O)C(C)C)[C@@H](C)CC [GIP(2-30)NH2]
[2]; radioligand 125I-GIP(1-30)NH2
  IC50: 26 nM
  fold change GIP(1-30)NH2: 84.3 fold
[2]
  Competitive binding fold (fold change of GIP(1-30)NH2 affinity): 16 fold
[2]; radioligand 125I-GIP(2-30)NH2
  IC50: 2.7 nM
  fold change GIP(1-30)NH2: 10.5 fold
[2]; radioligand 125I-GIP(3-30)NH2
  IC50: 7.7 nM
  fold change GIP(1-30)NH2: 4.6 fold
[1]
  Slope of Schild plot: 0.49±0.14
[1]; agonist mode
  Fold lower agonist potency than GIP(1-30)NH2: > 3000 fold
  Intrinsic agonistic activity in cAMP accumulation: weak partial agonist
[1]; agonist mode, given with negative sign
  log EC50, cAMP accumulation: −8.43±0.33
[1]; [3]
  IC50: 21.7 nM

## CC[C@H](C)[C@H](NC(=O)[C@H](CO)NC(=O)[C@H](Cc1ccc(O)cc1)NC(=O)[C@H](CC(=O)O)NC(=O)[C@H](CO)NC(=O)[C@@H](NC(=O)[C@H](Cc1ccccc1)NC(=O)[C@@H](NC(=O)CN)[C@@H](C)O)[C@@H](C)CC)C(=O)N[C@@H](C)C(=O)N[C@@H](CCSC)C(=O)N[C@@H](CC(=O)O)C(=O)N[C@@H](CCCCN)C(=O)N[C@H](C(=O)N[C@@H](Cc1c[nH]cn1)C(=O)N[C@@H](CCC(N)=O)C(=O)N[C@@H](CCC(N)=O)C(=O)N[C@@H](CC(=O)O)C(=O)N[C@@H](Cc1ccccc1)C(=O)N[C@H](C(=O)N[C@@H](CC(N)=O)C(=O)N[C@@H](Cc1c[nH]c2ccccc12)C(=O)N[C@@H](CC(C)C)C(=O)N[C@@H](CC(C)C)C(=O)N[C@@H](C)C(=O)N[C@@H](CCC(N)=O)C(=O)N[C@@H](CCCCN)C(N)=O)C(C)C)[C@@H](C)CC [GIP(4-30)NH2]
[2]
  Competitive binding fold (fold change of GIP(1-30)NH2 affinity): 24 fold
[1]
  Slope of Schild plot: 0.75±0.02
[1]; [3]
  IC50: 108 nM

## CC[C@H](C)[C@H](N)C(=O)N[C@@H](CO)C(=O)N[C@@H](CC(=O)O)C(=O)N[C@@H](Cc1ccc(O)cc1)C(=O)N[C@@H](CO)C(=O)N[C@H](C(=O)N[C@@H](C)C(=O)N[C@@H](CCSC)C(=O)N[C@@H](CC(=O)O)C(=O)N[C@@H](CCCCN)C(=O)N[C@H](C(=O)N[C@@H](Cc1c[nH]cn1)C(=O)N[C@@H](CCC(N)=O)C(=O)N[C@@H](CCC(N)=O)C(=O)N[C@@H](CC(=O)O)C(=O)N[C@@H](Cc1ccccc1)C(=O)N[C@H](C(=O)N[C@@H](CC(N)=O)C(=O)N[C@@H](Cc1c[nH]c2ccccc12)C(=O)N[C@@H](CC(C)C)C(=O)N[C@@H](CC(C)C)C(=O)N[C@@H](C)C(=O)N[C@@H](CCC(N)=O)C(=O)N[C@@H](CCCCN)C(N)=O)C(C)C)[C@@H](C)CC)[C@@H](C)CC [GIP(7-30)NH2, reference compound]
[1]
  Slope of Schild plot: 0.17±0.03
[1]; [3]
  IC50: 137 nM

## CC[C@H](C)[C@H](NC(=O)[C@H](CO)NC(=O)[C@H](Cc1ccc(O)cc1)NC(=O)[C@H](CC(=O)O)NC(=O)[C@H](CO)NC(=O)[C@@H](NC(=O)[C@H](Cc1ccccc1)NC(=O)[C@@H](NC(=O)CNC(=O)[C@@H](N)CCC(=O)O)[C@@H](C)O)[C@@H](C)CC)C(=O)N[C@@H](C)C(=O)N[C@@H](CCSC)C(=O)N[C@@H](CC(=O)O)C(=O)N[C@@H](CCCCN)C(=O)N[C@H](C(=O)N[C@@H](Cc1c[nH]cn1)C(=O)N[C@@H](CCC(N)=O)C(=O)N[C@@H](CCC(N)=O)C(=O)N[C@@H](CC(=O)O)C(=O)N[C@@H](Cc1ccccc1)C(=O)N[C@H](C(=O)N[C@@H](CC(N)=O)C(=O)N[C@@H](Cc1c[nH]c2ccccc12)C(=O)N[C@@H](CC(C)C)C(=O)N[C@@H](CC(C)C)C(=O)N[C@@H](C)C(=O)N[C@@H](CCC(N)=O)C(=O)N[C@@H](CCCCN)C(N)=O)C(C)C)[C@@H](C)CC [hGIP(3-30)]
[1]; 1 μM antagonist
  Fold shift in the dose-response curve of human GIP(1-42): 281 fold

## DYSIAMDKIHQQDFVNWLLAQK-NH2 [GIP(9-30)NH2]
[1]; inhibition of GIP(1-42) at 50-80% of max receptor activation, given with negative sign
  cAMP accumulation logIC50 ± SEM (antagonism): −6.35 ± 0.6
[1]; inhibition of submaximal GIP(1-42) activation
  Fold lower antagonistic potency (right-shift) compared to GIP(3-30)NH2: 38 fold

## porcine GIP(3-42): Porcine GIP(3-42), arginine in position 18 and serine in position 34; custom synthesized by PolyPeptide Laboratories (EGTFISDYSIAMDKIRQQDFVNWLLAQKGKKSDWKHNITQ) [reference compound]
[1]
  Antagonism of GIP(1-42)-induced cAMP response (in words): higher potency compared to human GIP (3-42), yet not as high as human GIP(3-30)NH2
[1]; agonist mode
  Intrinsic agonistic activity in cAMP accumulation: neither of the GIP(3-42) variants had any intrinsic agonistic activity

Reference: patent US10968266B2, “GIP peptide analogues” (University of Copenhagen, priority 2014, dated 2021)
